Paper PMC5218480 (PLoS ONE, 2017)

Test system: MV-4-11 cells
Assay: Gene expression microarray analysis (Affymetrix PrimeView) and GSEA
Assay type: cell-based, human
Parameters: RFU PODN (11730768_x_at) / Fold change /veh PODN (11730768_x_at) / RFU LINC00158 (11744669_a_at) / Fold change /veh LINC00158 (11744669_a_at) / RFU DUSP10 (11751237_a_at) / Fold change /veh DUSP10 (11751237_a_at) / RFU ID3 (11757404_x_at) / Fold change /veh ID3 (11757404_x_at) / RFU PLEKHG5 (11737974_s_at) / Fold change /veh PLEKHG5 (11737974_s_at) / RFU LRRC4B (11730491_at) / Fold change /veh LRRC4B (11730491_at) / RFU GIMAP4 (11747438_a_at) / Fold change /veh GIMAP4 (11747438_a_at) / RFU KRT8 (11758183_x_at) / Fold change /veh KRT8 (11758183_x_at) / RFU CNN1 (11734310_a_at) / Fold change /veh CNN1 (11734310_a_at) / RFU VPS37D (11726825_at) / Fold change /veh VPS37D (11726825_at) / RFU C10orf10 (11716522_x_at) / Fold change /veh C10orf10 (11716522_x_at) / RFU KIR2DL2 /// KIR2DL4 /// KIR2DL5A /// KIR2DL5B /// KIR2DS1 /// KIR2DS2 /// KIR2DS3 /// KIR2DS4 /// KIR3DL3 /// KIR3DL3 /// KIR3DS1 (11738374_at) / Fold change /veh KIR2DL2 /// KIR2DL4 /// KIR2DL5A /// KIR2DL5B /// KIR2DS1 /// KIR2DS2 /// KIR2DS3 /// KIR2DS4 /// KIR3DL3 /// KIR3DL3 /// KIR3DS1 (11738374_at) / RFU C1QL1 (11718748_at) / Fold change /veh C1QL1 (11718748_at) / RFU TMPRSS4 (11747572_a_at) / Fold change /veh TMPRSS4 (11747572_a_at) / RFU HAMP (11756126_x_at) / Fold change /veh HAMP (11756126_x_at) / RFU RNFT2 (11725882_a_at) / Fold change /veh RNFT2 (11725882_a_at) / RFU NR4A2 (11747474_a_at) / Fold change /veh NR4A2 (11747474_a_at) / RFU ABCC12 (11746883_a_at) / Fold change /veh ABCC12 (11746883_a_at) / RFU TMEM136 (11760407_x_at) / Fold change /veh TMEM136 (11760407_x_at) / RFU CLDN22 /// WWC2 (11732394_at) / Fold change /veh CLDN22 /// WWC2 (11732394_at) / RFU HLA-DPB1 (11760878_x_at) / Fold change /veh HLA-DPB1 (11760878_x_at) / RFU SPINT1 (11716480_a_at) / Fold change /veh SPINT1 (11716480_a_at) / RFU GAP43 (11754022_s_at) / Fold change /veh GAP43 (11754022_s_at) / RFU A4GNT (11735810_at) / Fold change /veh A4GNT (11735810_at) / RFU PRB3 (11715151_x_at) / Fold change /veh PRB3 (11715151_x_at) / RFU TUBB4B (11761932_at) / Fold change /veh TUBB4B (11761932_at) / RFU CAPN14 (11732068_a_at) / Fold change /veh CAPN14 (11732068_a_at) / RFU TMCC2 (11721928_a_at) / Fold change /veh TMCC2 (11721928_a_at) / RFU IRGQ (11745062_a_at) / Fold change /veh IRGQ (11745062_a_at) / RFU FAM174B (11720279_a_at) / Fold change /veh FAM174B (11720279_a_at) / RFU TMPRSS4 (11748680_a_at) / Fold change /veh TMPRSS4 (11748680_a_at) / RFU FAM212B (11763350_a_at) / Fold change /veh FAM212B (11763350_a_at) / RFU PLEKHG5 (11743358_a_at) / Fold change /veh PLEKHG5 (11743358_a_at) / RFU ZSCAN30 (11745921_a_at) / Fold change /veh ZSCAN30 (11745921_a_at) / RFU CMKLR1 (11741424_a_at) / Fold change /veh CMKLR1 (11741424_a_at) / RFU LOC101060620 /// MAPK8IP1 (11723275_at) / Fold change /veh LOC101060620 /// MAPK8IP1 (11723275_at) / RFU SPTSSB (11747773_x_at) / Fold change /veh SPTSSB (11747773_x_at) / RFU PRSS12 (11739890_at) / Fold change /veh PRSS12 (11739890_at) / RFU BIN1 (11741810_x_at) / Fold change /veh BIN1 (11741810_x_at) / RFU WNT11 (11732464_a_at) / Fold change /veh WNT11 (11732464_a_at) / RFU C10orf10 (11716521_a_at) / Fold change /veh C10orf10 (11716521_a_at) / RFU C5orf56 (11738089_at) / Fold change /veh C5orf56 (11738089_at) / RFU CYB561 (11721691_x_at) / Fold change /veh CYB561 (11721691_x_at) / RFU ANKRD19P (11752326_a_at) / Fold change /veh ANKRD19P (11752326_a_at) / RFU OR2T12 /// OR2T33 /// OR2T8 (11738714_s_at) / Fold change /veh OR2T12 /// OR2T33 /// OR2T8 (11738714_s_at) / RFU VCAN (11748164_a_at) / Fold change /veh VCAN (11748164_a_at) / RFU JSRP1 (11732532_at) / Fold change /veh JSRP1 (11732532_at) / RFU KRTAP10-11 (11738290_x_at) / Fold change /veh KRTAP10-11 (11738290_x_at) / RFU MYO3A (11730013_a_at) / Fold change /veh MYO3A (11730013_a_at) / RFU EBF3 (11725865_a_at) / Fold change /veh EBF3 (11725865_a_at) / RFU CAMK2N1 (11719241_x_at) / Fold change /veh CAMK2N1 (11719241_x_at) / RFU C5orf56 (11738088_a_at) / Fold change /veh C5orf56 (11738088_a_at) / RFU OLFML3 (11715873_a_at) / Fold change /veh OLFML3 (11715873_a_at) / RFU LOC100653217 /// NTM (11731650_a_at) / Fold change /veh LOC100653217 /// NTM (11731650_a_at) / RFU MAPK11 (11762145_a_at) / Fold change /veh MAPK11 (11762145_a_at) / RFU FIZ1 (11724087_x_at) / Fold change /veh FIZ1 (11724087_x_at) / RFU OASL (11726364_x_at) / Fold change /veh OASL (11726364_x_at) / RFU SOX15 (11748057_x_at) / Fold change /veh SOX15 (11748057_x_at) / RFU CD79A (11719716_a_at) / Fold change /veh CD79A (11719716_a_at) / RFU HIST1H1D (11736915_at) / Fold change /veh HIST1H1D (11736915_at) / RFU CASKIN2 (11723855_a_at) / Fold change /veh CASKIN2 (11723855_a_at) / RFU LOC730098 (11760151_x_at) / Fold change /veh LOC730098 (11760151_x_at) / RFU OR4N2 (11742367_at) / Fold change /veh OR4N2 (11742367_at) / RFU PRRT2 (11749266_a_at) / Fold change /veh PRRT2 (11749266_a_at) / RFU SNX32 (11753110_a_at) / Fold change /veh SNX32 (11753110_a_at) / RFU CDHR5 (11726645_a_at) / Fold change /veh CDHR5 (11726645_a_at) / RFU RCAN1 (11760418_a_at) / Fold change /veh RCAN1 (11760418_a_at) / RFU FAM167A (11723789_a_at) / Fold change /veh FAM167A (11723789_a_at) / RFU FAM26E (11764081_at) / Fold change /veh FAM26E (11764081_at) / RFU ISYNA1 (11749810_s_at) / Fold change /veh ISYNA1 (11749810_s_at) / RFU ACY1 (11761880_at) / Fold change /veh ACY1 (11761880_at) / RFU 11764098_at / Fold change /veh 11764098_at / RFU SAMD14 (11745864_x_at) / Fold change /veh SAMD14 (11745864_x_at) / RFU NPB (11741838_a_at) / Fold change /veh NPB (11741838_a_at) / RFU TMPRSS6 (11731388_a_at) / Fold change /veh TMPRSS6 (11731388_a_at) / RFU KRTAP10-2 (11738614_at) / Fold change /veh KRTAP10-2 (11738614_at) / RFU ARHGAP8 /// PRR5-ARHGAP8 (11727945_x_at) / Fold change /veh ARHGAP8 /// PRR5-ARHGAP8 (11727945_x_at) / RFU KRTAP5-7 /// NADSYN1 (11734609_at) / Fold change /veh KRTAP5-7 /// NADSYN1 (11734609_at) / RFU RASL12 (11751679_a_at) / Fold change /veh RASL12 (11751679_a_at) / RFU CDKN2B (11736163_a_at) / Fold change /veh CDKN2B (11736163_a_at) / RFU PRF1 (11729649_at) / Fold change /veh PRF1 (11729649_at) / RFU, ZNF638 /// ZNF638-IT1 / Fold change vs veh, ZNF638 /// ZNF638-IT1 / RFU, PANK3 / Fold change vs veh, PANK3 / RFU, SH3YL1 / Fold change vs veh, SH3YL1 / RFU, ZEB2 / Fold change vs veh, ZEB2 / RFU, NRIP1 / Fold change vs veh, NRIP1 / RFU, PTTG1IP / Fold change vs veh, PTTG1IP / RFU, CAPN2 / Fold change vs veh, CAPN2 / RFU, MED14 / Fold change vs veh, MED14 / RFU, SNORA58 / Fold change vs veh, SNORA58 / RFU, C1orf63 / Fold change vs veh, C1orf63 / RFU, LRRFIP1 / Fold change vs veh, LRRFIP1 / RFU, NDUFAF7 / Fold change vs veh, NDUFAF7 / RFU, SLC12A2 / Fold change vs veh, SLC12A2 / RFU, IBTK / Fold change vs veh, IBTK / RFU, ESF1 / Fold change vs veh, ESF1 / Fold change vs veh, TMEM50B / RFU, TAOK1 / Fold change vs veh, TAOK1 / RFU, ACBD3 / Fold change vs veh, ACBD3 / RFU, TMA16 / Fold change vs veh, TMA16 / RFU, RWDD3 / Fold change vs veh, RWDD3 / RFU, BCAT1 / Fold change vs veh, BCAT1 / RFU, EDEM3 / Fold change vs veh, EDEM3 / RFU, TMEM33 / Fold change vs veh, TMEM33 / RFU, WDR75 / Fold change vs veh, WDR75 / RFU, AHCTF1 / Fold change vs veh, AHCTF1 / RFU, TFRC / Fold change vs veh, TFRC / RFU, ZDHHC17 / Fold change vs veh, ZDHHC17 / RFU, NOM1 / Fold change vs veh, NOM1 / RFU, ARL8B / Fold change vs veh, ARL8B / RFU, ZBTB11 / Fold change vs veh, ZBTB11 / RFU, TAMM41 / Fold change vs veh, TAMM41 / RFU, KIAA1704 /// LOC100996395 / Fold change vs veh, KIAA1704 /// LOC100996395 / RFU, ING1 / Fold change vs veh, ING1 / RFU, TRMT61B / Fold change vs veh, TRMT61B / RFU, FUBP3 / Fold change vs veh, FUBP3 / RFU, TP53 / Fold change vs veh, TP53 / RFU, TNKS2 / Fold change vs veh, TNKS2 / RFU, ZFP14 / Fold change vs veh, ZFP14 / RFU, ACTR2 / Fold change vs veh, ACTR2 / RFU, PPP3R1 / Fold change vs veh, PPP3R1 / RFU, PIK3R1 / Fold change vs veh, PIK3R1 / RFU, HNRNPA1 / Fold change vs veh, HNRNPA1 / RFU, RNF170 / Fold change vs veh, RNF170 / RFU, ZNF28 / Fold change vs veh, ZNF28 / RFU, RNGTT / Fold change vs veh, RNGTT / RFU, OGT / Fold change vs veh, OGT / RFU, BRD1 / Fold change vs veh, BRD1 / RFU, MARS / Fold change vs veh, MARS / RFU, ZNF655 / Fold change vs veh, ZNF655 / RFU, FAHD1 / Fold change vs veh, FAHD1 / RFU, BDP1 / Fold change vs veh, BDP1 / RFU, LRRCC1 / Fold change vs veh, LRRCC1 / RFU, ARID1A / Fold change vs veh, ARID1A / RFU, ZNF146 / Fold change vs veh, ZNF146 / RFU, ZNF330 / Fold change vs veh, ZNF330 / RFU, GPN3 / Fold change vs veh, GPN3 / RFU, C9orf123 / Fold change vs veh, C9orf123 / RFU, N4BP2L2 / Fold change vs veh, N4BP2L2 / RFU, ARFIP1 / Fold change vs veh, ARFIP1 / RFU, FAM179B / Fold change vs veh, FAM179B / RFU, BCL10 / Fold change vs veh, BCL10 / RFU, UHRF1BP1L / Fold change vs veh, UHRF1BP1L / RFU, BET1 / Fold change vs veh, BET1 / RFU, CNOT2 / Fold change vs veh, CNOT2 / RFU, ZNF268 / Fold change vs veh, ZNF268 / Fold change vs veh, ZNF507 / RFU, DGCR2 / Fold change vs veh, DGCR2 / RFU, WDSUB1 / Fold change vs veh, WDSUB1 / Fold change vs veh, HSP90B1 /// MIR3652 / RFU, ADSS / Fold change vs veh, ADSS / RFU, GK / Fold change vs veh, GK / RFU, ZNF148 / Fold change vs veh, ZNF148 / RFU, TAF9 / Fold change vs veh, TAF9 / RFU, SLC1A5 / Fold change vs veh, SLC1A5 / RFU, SLMO2 / Fold change vs veh, SLMO2 / RFU, ABCC4 / Fold change vs veh, ABCC4 / RFU, LOC101060439 /// RAP1B / Fold change vs veh, LOC101060439 /// RAP1B / RFU, RFX7 / Fold change vs veh, RFX7 / RFU, GTPBP10 / Fold change vs veh, GTPBP10 / RFU, CNEP1R1 / Fold change vs veh, CNEP1R1 / RFU, BIVM-ERCC5 /// ERCC5 / Fold change vs veh, BIVM-ERCC5 /// ERCC5 / RFU, ILF3 / Fold change vs veh, ILF3 / RFU 11762660_at / Fold change /veh 11762660_at / RFU VCAN (11757783_s_at) / Fold change /veh VCAN (11757783_s_at) / RFU DDX43 (11728927_at) / Fold change /veh DDX43 (11728927_at) / RFU KRT8 (11758188_x_at) / Fold change /veh KRT8 (11758188_x_at) / RFU NKD1 (11759106_at) / Fold change /veh NKD1 (11759106_at) / RFU SRD5A1 (11742802_a_at) / Fold change /veh SRD5A1 (11742802_a_at) / RFU TPSAB1 /// TPSB2 (11721975_s_at) / Fold change /veh TPSAB1 /// TPSB2 (11721975_s_at) / RFU GSTM3 (11746129_a_at) / Fold change /veh GSTM3 (11746129_a_at) / RFU IL23R (11737362_x_at) / Fold change /veh IL23R (11737362_x_at) / RFU TMEM51 (11727254_a_at) / Fold change /veh TMEM51 (11727254_a_at) / RFU PIWIL2 (11732686_x_at) / Fold change /veh PIWIL2 (11732686_x_at) / RFU ORM1 (11744905_x_at) / Fold change /veh ORM1 (11744905_x_at) / RFU CCDC152 (11743942_at) / Fold change /veh CCDC152 (11743942_at) / RFU ECM1 (11717891_a_at) / Fold change /veh ECM1 (11717891_a_at) / RFU IL23R (11748794_a_at) / Fold change /veh IL23R (11748794_a_at) / RFU TNFAIP8L3 (11732012_x_at) / Fold change /veh TNFAIP8L3 (11732012_x_at) / RFU MBOAT4 (11741988_at) / Fold change /veh MBOAT4 (11741988_at) / RFU 11764193_at / Fold change /veh 11764193_at / RFU TMEM53 (11763286_at) / Fold change /veh TMEM53 (11763286_at) / RFU MAGEB2 (11727129_at) / Fold change /veh MAGEB2 (11727129_at) / RFU TMEM200A (11744735_a_at) / Fold change /veh TMEM200A (11744735_a_at) / RFU CCDC152 (11751479_a_at) / Fold change /veh CCDC152 (11751479_a_at) / RFU FAM211A (11726209_a_at) / Fold change /veh FAM211A (11726209_a_at) / RFU RGS16 (11746705_a_at) / Fold change /veh RGS16 (11746705_a_at) / RFU VCAN (11755009_s_at) / Fold change /veh VCAN (11755009_s_at) / RFU RHOB (11743442_s_at) / Fold change /veh RHOB (11743442_s_at) / RFU RGS16 (11720943_a_at) / Fold change /veh RGS16 (11720943_a_at) / RFU RGS16 (11720944_at) / Fold change /veh RGS16 (11720944_at) / RFU, VPS4B / Fold change vs veh, VPS4B / RFU, CREB1 / Fold change vs veh, CREB1 / RFU, DNAJC13 / Fold change vs veh, DNAJC13 / RFU, GNAQ / Fold change vs veh, GNAQ / RFU, CDK5R1 / Fold change vs veh, CDK5R1 / RFU, ZRANB3 / Fold change vs veh, ZRANB3 / RFU, CUL4A / Fold change vs veh, CUL4A / RFU, CCNY / Fold change vs veh, CCNY / RFU, UFL1 / Fold change vs veh, UFL1 / RFU, COG3 / Fold change vs veh, COG3 / RFU, DIAPH2 / Fold change vs veh, DIAPH2 / RFU, SKA2 / Fold change vs veh, SKA2 / RFU, AFF3 / Fold change vs veh, AFF3 / RFU, LMF1 / Fold change vs veh, LMF1 / RFU, IPO11 / Fold change vs veh, IPO11 / RFU, DFFB / Fold change vs veh, DFFB / RFU, FOXP1 / Fold change vs veh, FOXP1 / RFU, CARD8 / Fold change vs veh, CARD8 / RFU, STRN3 / Fold change vs veh, STRN3 / RFU, ADK / Fold change vs veh, ADK / RFU, RASSF2 / Fold change vs veh, RASSF2 / RFU, WIPF1 / Fold change vs veh, WIPF1 / RFU, LARP1B / Fold change vs veh, LARP1B / RFU, RASA1 / Fold change vs veh, RASA1 / RFU, RB1 / Fold change vs veh, RB1 / RFU, PPFIA1 / Fold change vs veh, PPFIA1 / RFU, MAT2A / Fold change vs veh, MAT2A / RFU, CCT5 / Fold change vs veh, CCT5 / RFU, WDR92 / Fold change vs veh, WDR92 / RFU, CUX1 / Fold change vs veh, CUX1 / RFU, TTC7A / Fold change vs veh, TTC7A / RFU, TMEM135 / Fold change vs veh, TMEM135 / RFU, DEPTOR / Fold change vs veh, DEPTOR / RFU, CPM / Fold change vs veh, CPM / RFU, DNAJB6 / Fold change vs veh, DNAJB6 / RFU, CACNA2D3 / Fold change vs veh, CACNA2D3 / RFU, DTX4 / Fold change vs veh, DTX4 / RFU, TFCP2 / Fold change vs veh, TFCP2 / RFU, GMCL1 /// GMCL1P1 / Fold change vs veh, GMCL1 /// GMCL1P1 / RFU, AEBP2 / Fold change vs veh, AEBP2 / RFU, SNHG1 /// SNORD22 /// SNORD25 /// SNORD26 /// SNORD27 /// SNORD28 /// SNORD29 /// SNORD31 / Fold change vs veh, SNHG1 /// SNORD22 /// SNORD25 /// SNORD26 /// SNORD27 /// SNORD28 /// SNORD29 /// SNORD31 / Fold change (Aza/veh), C12orf56 (ProbeSet 11735607_a_at) / Fold change (ACY-1035/veh), C12orf56 (ProbeSet 11735607_a_at) / Fold change (Aza/veh), FGFR1OP (ProbeSet 11751329_s_at) / Fold change (ACY-1035/veh), FGFR1OP (ProbeSet 11751329_s_at) / Fold change (Aza/veh), VPS36 (ProbeSet 11739960_a_at) / Fold change (ACY-1035/veh), VPS36 (ProbeSet 11739960_a_at) / RFU SYPL1 (11715823_x_at) / Fold change /veh SYPL1 (11715823_x_at) / RFU IGFBP7 (11715501_s_at) / Fold change /veh IGFBP7 (11715501_s_at) / RFU REEP3 (11722064_at) / Fold change /veh REEP3 (11722064_at) / RFU IGLL1 (11728026_x_at) / Fold change /veh IGLL1 (11728026_x_at): dose or concentration left out as unconfirmed
Details: ProbeSet 11752001_a_at; LIST D

Nc1ccc(-c2cccs2)cc1NC(=O)c1ccc2c(c1)cc(C1CC1)n2CCN1CCOCC1 [ACY-1035]
Fold change vs veh, CUL4A: 0.87
